Test system: Ltk− cells
Test: Efficiency of introduction into cells with the aid of Ca2+ indicator
Format: cell-based, mouse
Conditions: intracellular calcium elevated by calcium ionophore
Description: To the nanospheres (red fluorescent), calcium green-1 acetoxymethyl derivative was added as a fluorescent Ca^2+ indicator to give a concentration of 20 mM and mixed at room temperature for 1 hour so that it was adsorbed on the nanospheres. The unadsorbed calcium green-1 was removed by dialysis (Spectra/Por Membranes MWCO:12-14000) and buffer replacement was performed to prepare liposomes and fusogenic liposomes. 2×10^5 Ltk^−cells that had been seeded on 6-well plates one day before were washed with PBS(−) and exposed for 1 minute to the action of the calcium green-1 acetoxymethyl derivative, calcium green-1 adsorbed nanospheres, liposomes or fusogenic liposomes which were all conditioned to have the same fluorescence intensity of 2700 (Ex. 488 nm; Em, 534 nm). Thereafter, the cells were washed with PBS(−), cultured in an Eagle's MEM medium for 1 hour, stripped from the medium with trypsin and subjected to the measurement of fluorescence intensity (Ex, 488 nm; Em, 534 nm). Thereafter, a calcium ionophore/DMSO solution was added to give a concentration of 0.1 mg/mL and fluorescence intensity was measured at Ex=488 nm and Em=534 nm.

calcium green-1 acetoxymethyl derivative
fluorescence of calcium green-1 in cells: barely detectable

— patent US6875448B1, “Method of intracellular sustained-release of drug and preparations” (Chugai Seiyaku Kabushiki Kaisha, priority 1999, dated 2005)
